Like-named read-outs stand apart in the source and are kept apart here.
Key:
[1] = biological target: T1, human liver FBPase (hlFBPase) (Homo sapiens, UniProt P09467); assay: Inhibition of Human Liver FBPase; format: biochemical
T1 construct: made in house; host or cells: E. coli BL21 (transformed strain from Dr. M. R. El-Maghrabi, SUNY Stony Brook)
T1 sequence (P09467 2-338 limits assumed): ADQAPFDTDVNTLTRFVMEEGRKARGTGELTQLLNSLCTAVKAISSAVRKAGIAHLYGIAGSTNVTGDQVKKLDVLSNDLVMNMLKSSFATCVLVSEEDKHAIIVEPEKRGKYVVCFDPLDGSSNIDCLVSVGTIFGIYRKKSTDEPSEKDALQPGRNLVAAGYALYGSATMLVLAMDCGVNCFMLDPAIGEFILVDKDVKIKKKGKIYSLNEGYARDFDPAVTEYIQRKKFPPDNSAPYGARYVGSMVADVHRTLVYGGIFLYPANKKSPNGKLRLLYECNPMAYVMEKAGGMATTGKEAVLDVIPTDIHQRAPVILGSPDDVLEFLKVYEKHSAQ
Procedure: (§1) Enzymatic activity was measured spectrophotometrically in reactions that coupled the formation of product (fructose 6-phosphate) to the reduction of dimethylthiazoldiphenyltetrazolium bromide (MTT) via NADP and phenazine methosulfate (PMS), using phosphoglucose isomerase and glucose 6-phosphate dehydrogenase as the coupling enzymes. Reaction mixtures (200 μL) were made up in 96-well microtitre plates, and consisted of 50 mM Tris-HCl, pH 7.4, 100 mM KCl, 5 mM EGTA, 2 mM MgCl2, 0.2 mM NADP, 1 mg/mL BSA, 1 mM MTT, 0.6 mM PMS, 1 unit/mL phosphoglucose isomerase, 2 units/mL glucose 6-phosphate dehydrogenase, and 0.150 mM substrate (fructose 1,6-bisphosphate). Inhibitor concentrations were varied from 0.01 μM to 10 μM. Reactions were started by the addition of 0.002 units of pure hlFBPase and were monitored for 7 minutes at 590 nm in a Molecular Devices Plate Reader (37° C.).

[2] = test system: glucose production from lactate/pyruvate in isolated rat hepatocytes; assay: Inhibition of Gluconeogenesis in Rat Hepatocytes; format: cell-based
Procedure: Hepatocytes were prepared from overnight fasted Sprague-Dawley rats (250-300 g) according to the procedure of Berry and Friend (Berry, M. N., Friend, D. S., J. Cell. Biol. 1969, 43, 506-520) as modified by Groen (Groen, A. K., Sips, H. J., Vervoorn, R. C., Tager, J. M., Eur. J. Biochem. 1982, 122, 87-93). Hepatocytes (75 mg wet weight/mL) were incubated in 1 mL Krebs-bicarbonate buffer containing 10 mM Lactate, 1 mM pyruvate, 1 mg/mL BSA, and test compound concentrations from 1 to 500 μM. Incubations were carried out in a 95% oxygen, 5% carbon dioxide atmosphere in closed, 50-mL Falcon tubes submerged in a rapidly shaking water bath (37° C.). After 1 hour, an aliquot (0.25 mL) was removed, transferred to an Eppendorf tube and centrifuged. 50 μL of supernatant was then assayed for glucose content using a Sigma Glucose Oxidase kit as per the manufacturer's instructions.

[3] = biological target: T2, Mouse liver FBPase (Mus musculus, UniProt Q9QXD6); assay: In vitro Inhibition of Mouse Liver FBPase; format: biochemical; settings: partially purified mouse liver fraction, assayed as for human liver FBPase
T2 construct: Mouse liver FBPase is obtained by homogenizing freshly isolated mouse liver; from tissue; host or cells: freshly isolated mouse liver; 45-75% ammonium sulfate fraction, desalted
T2 sequence (Q9QXD6 2-338 limits assumed): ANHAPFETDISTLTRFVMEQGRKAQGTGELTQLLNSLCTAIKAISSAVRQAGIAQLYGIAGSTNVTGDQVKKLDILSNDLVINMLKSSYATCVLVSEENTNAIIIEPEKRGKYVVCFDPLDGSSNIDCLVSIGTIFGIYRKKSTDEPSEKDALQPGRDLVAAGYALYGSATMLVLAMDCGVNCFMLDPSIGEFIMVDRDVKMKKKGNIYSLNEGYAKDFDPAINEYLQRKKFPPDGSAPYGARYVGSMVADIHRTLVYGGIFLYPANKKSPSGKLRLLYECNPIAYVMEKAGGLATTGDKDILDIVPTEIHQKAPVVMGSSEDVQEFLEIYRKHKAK
Procedure: as §1, with “E. coli strain BL21 transformed with a human liver FBPase-encoding plasmid was obtained from Dr. M. R. El-Maghrabi at the State University of New York at Stony Brook. hIFBPase was typically purified from 10 liters of E. coli culture as described (M. Gidh-Jain et al., The Journal of Biological Chemistry 1994, 269, 27732-27738). Enzymatic” for “Enzymatic”
(§2) E. coli strain BL21 transformed with a rat liver FBPase-encoding plasmid is obtained from Dr. M. R. El-Maghrabi at the State University of New York at Stony Brook, and purified as described (El-Maghrabi, M. R., and Pilkis, S. J. Biochem. Biophys. Res. Commun. 1991, 176, 137-144). Mouse liver FBPase is obtained by homogenizing freshly isolated mouse liver in 100 mM Tris-HCl buffer, pH 7.4, containing 1 mM EGTA, and 10% glycerol. The homogenate is clarified by centrifugation, and the 45-75% ammonium sulfate fraction prepared. This fraction is redissolved in the homogenization buffer and desalted on a PD-10 gel filtration column (Biorad) eluted with same. This partially purified fraction is used for enzyme assays. Both rat liver and mouse liver FBPase are assayed as described for human liver FBPase. Generally, as reflected by the higher IC50 values, the rat and mouse liver enzymes are less sensitive to inhibition by the compounds tested than the human liver enzyme.

[4] = biological target: T3, rat liver FBPase (Rattus norvegicus, UniProt P19112); assay: In vitro Inhibition of Rat Liver FBPase; format: biochemical; settings: assayed as for human liver FBPase
T3 construct: made in house; host or cells: E. coli BL21 (transformed strain from Dr. M. R. El-Maghrabi, SUNY Stony Brook)
T3 sequence (P19112 2-363 limits assumed): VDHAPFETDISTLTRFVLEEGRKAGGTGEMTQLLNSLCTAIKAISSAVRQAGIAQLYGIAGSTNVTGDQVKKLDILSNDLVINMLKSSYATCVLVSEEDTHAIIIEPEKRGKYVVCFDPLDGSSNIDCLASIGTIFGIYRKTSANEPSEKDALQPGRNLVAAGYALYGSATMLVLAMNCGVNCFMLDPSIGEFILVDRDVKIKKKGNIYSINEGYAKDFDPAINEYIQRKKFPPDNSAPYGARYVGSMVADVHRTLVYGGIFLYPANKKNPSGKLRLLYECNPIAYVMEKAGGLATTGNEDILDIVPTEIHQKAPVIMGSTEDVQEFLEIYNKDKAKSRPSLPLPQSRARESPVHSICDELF
Procedure: as §1, with “E. coli strain BL21 transformed with a human liver FBPase-encoding plasmid was obtained from Dr. M. R. El-Maghrabi at the State University of New York at Stony Brook. hIFBPase was typically purified from 10 liters of E. coli culture as described (M. Gidh-Jain et al., The Journal of Biological Chemistry 1994, 269, 27732-27738). Enzymatic” for “Enzymatic”
as §2

[5] = 0.150 mM fructose 1,6-bisphosphate, pH 7.4, 37° C., read-out: HL FBPase IC50
[6] = Rattus norvegicus, Hepatocyte, 1 hour

SMILES | IC50 [1, 5] [µM] | inhibition at 500 µM [2, 6] [%] | IC50 [3] [µM] | IC50 [4] [µM] | also measured
COc1ccc2[nH]c(C(=O)NCP(=O)(O)O)cc2c1 [Compound 1.3, Disodium 5-methoxy-2-(phosphonomethylaminocarbonyl)indole] | 60.6 | 3.4 | – | – | –
Nc1ncnc2c1ncn2[C@@H]1O[C@H](COP(=O)(O)O)[C@@H](O)[C@H]1O [adenosine monophosphate (AMP), adenosine monophosphate, reference compound] | – | – | – | – | IC50 ([1]; under the reaction conditions of Example A, read-out: concentration required to inhibit half of the hlFBPase activity): 1 µM
CC(C)Cn1c(-c2ccc(P(=O)(O)O)o2)cc2ccccc21 [Compound 6.1, 1-isobutyl-2-(2-(5-phosphono)furanyl)indole] | 10.7 | 64.4 | > 20 | > 20 | dose dependent inhibition of glucose production in rat hepatocytes (FIG. 3) [2]: inhibit glucose production in a dose dependent manner
O=P(O)(O)c1ccc(-c2cn3cc(Cl)ccc3n2)o1 [Compound 14.2, 9-Aza-5-chloro-2-(2-(5-phosphono)furanyl)indole] | 4.5 | – | – | – | –
Nc1cccc2cc(C(=O)NCP(=O)(O)O)[nH]c12 [Compound 1.1, 7-Amino-2-(phosphonomethylaminocarbonyl)indole] | 10 | – | – | – | dose-dependent inhibition of hlFBPase (FIG. 2) [1]: dose-dependent inhibition
O=P(O)(O)c1ccc(-c2[nH]c3ccccc3c2-c2ccccc2)o1 [Compound 7.2, 3-phenyl-2-(2-(5-phosphono)furanyl)indole] | 8.5 | – | > 20 | > 20 | –
O=P(O)(O)COCc1nc2ccccn2c1-c1ccccc1 [Compound 11.3, 9-aza-3-phenyl-2-phosphono-methoxymethylindole] | 10 | – | – | – | –
Cc1cccn2c(CC(C)C)c(-c3ccc(P(=O)(O)O)o3)nc12 [Compound 14.4, 9-Aza-3-isobutyl-7-methyl-2-(2-(5-phosphono)furanyl)indole] | 1.6 | – | > 30 | > 25 | –
Nc1cccn2c(-c3ccccc3)c(COCP(=O)(O)O)nc12 [Compound 11.5, 7-amino-9aza-3-phenyl-2-phosphonomethoxymethyl-indole] | 10 | – | – | 90 | inhibition at 250 µM ([2]; Rattus norvegicus, Hepatocyte, 250 μM, 1 hour): 50%
CC(C)Cn1c(-c2ccc(P(=O)(O)O)o2)cc2c(N)cccc21 [Compound 9.1, N^1-isobutyl-4-amino-2-(2-(5-phosphone)furanyl)indole] | 32.5 | 57 | – | – | dose dependent inhibition of glucose production in rat hepatocytes (FIG. 3) [2]: inhibit glucose production in a dose dependent manner
Nc1cccc2c(-c3ccccc3)c(C(=O)NCP(=O)(O)O)[nH]c12 [Compound 2.1, 7-amino-3-phenyl-2-(phosphonomethylaminocarbonyl)indole] | – | – | – | – | dose-dependent inhibition of hlFBPase (FIG. 2) [1]: dose-dependent inhibition
O=P(O)(O)c1ccc(-c2cc3ccccc3[nH]2)o1 [Compound 5.1, 2-(2-(5-phosphono)furanyl)indole] | 8.8 | 39.6 | > 20 | > 20 | –
Nc1cccc2c(CCc3ccccc3)c(C(=O)NCP(=O)(O)O)[nH]c12 [Compound 3.1, 7-amino-3-(2-phenethyl)-2-(phosphonomethylaminocarbonyl)indole] | – | 41.5 | – | – | –
CC(C)Cc1c(-c2ccc(P(=O)(O)O)o2)[nH]c2ccc(Cl)cc12 [Compound 10.1, 5-chloro-3-isobutyl-2-(2-(5-phosphono)furanyl)indole] | 2.5 | – | – | – | –
O=P(O)(O)c1ccc(-c2[nH]c3ccccc3c2Br)o1 [Compound 7.1, 2-(2-(5-phosphono)furanyl)-3-bromoindole] | 8.67 | 45.4 | > 20 | > 20 | –
O=C(NCP(=O)(O)O)c1cn2ccccc2n1 [Compound 12.1, 9-aza-2-phosphonomethylaminocarbonylindole] | 90 | – | – | – | –

Reference: patent US6294672A, “Indole and azaindole inhibitors of Fructose-1,6-biphosphatase” (Metabasis Therapeutics, Inc., priority 2000, dated 2001)
